From PubChem BioAssay (NCI) come the findings set out here.

Test systems include HS 578T breast; HOP-92 NSCLC; CAKI-1 renal; HCT-15 colon; OVCAR-4 ovarian; SNB-19 CNS; NCI-H226 lung; RXF 393 renal; SK-OV-3 ovarian; SR leukemia.
Common to all, as to assay: NCI-60 cell line screen, 48 h

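The compound was tested at five concentrations on cells cultured in 96-well plates, with a 48-hour exposure period. GI50 marks 50% less growth. TGI: total growth inhibition.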

Consider `CCOc1cc(-c2nncn2C)ccc1Nc1ncc2cc(C)nc(NCC(C)(C)C)c2n1`, for which the TGI with HS 578T breast, with HOP-92 NSCLC, in the experiment with CAKI-1 renal, in the experiment with HCT-15 colon, in the experiment with OVCAR-4 ovarian and with SNB-19 CNS was above 100 µM throughout. Besides, the TGI with NCI-H226 lung was above 100 µM; with RXF 393 renal, above 100 µM; with SK-OV-3 ovarian, above 100 µM; with SR leukemia, above 75.8 µM. In addition, the GI50 is above 26 µM in the experiment on HOP-92 NSCLC; above 26.6 µM with CAKI-1 renal; 0.193 µM with HCT-15 colon; above 29.3 µM in the experiment on OVCAR-4 ovarian; above 100 µM in the experiment with SNB-19 CNS; above 23.5 µM in the experiment with NCI-H226 lung. Moreover, the GI50 in the experiment with RXF 393 renal is 2.33 µM; in the experiment on SK-OV-3 ovarian, above 100 µM; in the experiment with SR leukemia, 0.15 µM.
As to `COc1cccc2c1C(=O)c1c(O)c3c(c(O)c1C2=O)C[C@@](O)(/C(CO)=N/NC(=O)CCCCCN1C(=O)C=CC1=O)C[C@@H]3O[C@H]1C[C@H](N)[C@H](O)[C@H](C)O1`, the GI50 in the experiment on HS 578T breast is 1.69 µM; in the experiment with HOP-92 NSCLC, 0.27 µM; with CAKI-1 renal, 3.6 µM; with HCT-15 colon it was 7.94 µM; in the experiment on OVCAR-4 ovarian, 2.25 µM; in the experiment on SNB-19 CNS, 0.465 µM. In addition, the GI50 was 0.56 µM in the experiment with NCI-H226 lung, 0.984 µM in the experiment with RXF 393 renal, 1.63 µM in the experiment on SK-OV-3 ovarian and 0.109 µM in the experiment on SR leukemia. In addition, the TGI in the experiment with HS 578T breast was 9.64 µM; in the experiment with HOP-92 NSCLC, 7.01 µM; in the experiment on CAKI-1 renal it was 56.4 µM; with HCT-15 colon it was above 100 µM; in the experiment on OVCAR-4 ovarian, 22 µM; in the experiment on SNB-19 CNS, 11.4 µM. For the same molecule, the TGI in the experiment on NCI-H226 lung is 3.37 µM; in the experiment on RXF 393 renal it was 3.85 µM; in the experiment on SK-OV-3 ovarian, 36.8 µM; in the experiment on SR leukemia it was above 100 µM.
Take `Cc1ccc(/C=N/NC(=O)c2ccccc2Oc2ccccc2)o1`: the GI50 in the experiment with HS 578T breast is 46.9 µM; in the experiment on HOP-92 NSCLC, 12.5 µM; with CAKI-1 renal, 34.1 µM; in the experiment on HCT-15 colon it was 37.9 µM; with OVCAR-4 ovarian, 24.6 µM; in the experiment on SNB-19 CNS, 48.4 µM. In addition, the GI50 was 39.1 µM in the experiment on NCI-H226 lung, 35.6 µM with RXF 393 renal, 77.6 µM in the experiment on SK-OV-3 ovarian and 40 µM in the experiment on SR leukemia. For the same molecule, the TGI in the experiment on HS 578T breast was above 100 µM; in the experiment on HOP-92 NSCLC, above 95.4 µM; in the experiment on CAKI-1 renal it was above 100 µM; in the experiment on HCT-15 colon it was above 100 µM; in the experiment on OVCAR-4 ovarian, above 100 µM; in the experiment on SNB-19 CNS, above 100 µM. Besides, the TGI in the experiment with NCI-H226 lung, in the experiment on RXF 393 renal, in the experiment on SK-OV-3 ovarian and in the experiment on SR leukemia was above 100 µM each time.
Consider `Cc1ccc(C[As+](c2ccccc2)(c2ccccc2)c2ccccc2)cc1`, for which the GI50 in the experiment with HS 578T breast is 2.19 µM; with HOP-92 NSCLC it was 0.158 µM; in the experiment with CAKI-1 renal, 8.85 µM; with HCT-15 colon it was 13 µM; with OVCAR-4 ovarian, 0.778 µM; with SNB-19 CNS it was 0.978 µM. Further, the GI50 with NCI-H226 lung was 1.64 µM; in the experiment with RXF 393 renal it was 1.62 µM; in the experiment on SK-OV-3 ovarian, 1.82 µM; in the experiment on SR leukemia, 0.797 µM. The TGI was above 48.8 µM with HS 578T breast; 0.961 µM in the experiment on HOP-92 NSCLC; 43.9 µM with CAKI-1 renal; above 100 µM in the experiment on HCT-15 colon; above 100 µM in the experiment with OVCAR-4 ovarian; above 76.8 µM in the experiment with SNB-19 CNS. Moreover, the TGI in the experiment with NCI-H226 lung is above 100 µM; in the experiment on RXF 393 renal, 11.4 µM; in the experiment with SK-OV-3 ovarian, above 23.5 µM; in the experiment on SR leukemia it was 6.07 µM.
On to `CNC(=O)ON(C(C)=O)C(=O)NC`, for which the GI50 in the experiment on HS 578T breast was 49.9 µM; with HOP-92 NSCLC it was above 56 µM; with HCT-15 colon, above 76.4 µM; in the experiment with SR leukemia, 7.31 µM. For the same molecule, the TGI in the experiment with HS 578T breast amounted to 216 µM; in the experiment with HOP-92 NSCLC it was 64.4 µM; in the experiment on CAKI-1 renal it was 146 µM; with HCT-15 colon, 109 µM; in the experiment with OVCAR-4 ovarian it was 142 µM; with SNB-19 CNS it was 359 µM. Besides, the TGI in the experiment with NCI-H226 lung was 230 µM; in the experiment on RXF 393 renal, 107 µM; in the experiment on SK-OV-3 ovarian, 276 µM; in the experiment with SR leukemia it was above 72.3 µM.
For `N#C/C(=C\c1cc(O)c(O)c(O)c1)C(N)=O`, the TGI in the experiment with HS 578T breast, in the experiment on HOP-92 NSCLC, in the experiment on CAKI-1 renal, with HCT-15 colon, in the experiment on OVCAR-4 ovarian and in the experiment with SNB-19 CNS was above 100 µM each time. The TGI in the experiment on NCI-H226 lung is above 100 µM; in the experiment on RXF 393 renal, above 100 µM; with SK-OV-3 ovarian it was above 100 µM; in the experiment with SR leukemia, above 92.3 µM.
Consider `CN1CCN(CCCNC(=O)c2c3c(n4ccccc24)C(=O)c2ncccc2C3=O)CC1`, for which the GI50 is 5.32 µM in the experiment with HS 578T breast; 3.03 µM with HOP-92 NSCLC; 6.76 µM in the experiment with CAKI-1 renal; 1.25 µM in the experiment on HCT-15 colon; 0.413 µM with OVCAR-4 ovarian; 1.35 µM with SNB-19 CNS. The GI50 in the experiment on NCI-H226 lung is 2.67 µM; with RXF 393 renal it was 1.52 µM; in the experiment on SK-OV-3 ovarian, 3.46 µM; in the experiment with SR leukemia, 0.529 µM. For the same molecule, the TGI was 51.8 µM in the experiment with HS 578T breast; 13.4 µM in the experiment on HOP-92 NSCLC; 46.3 µM with CAKI-1 renal; 8.47 µM with HCT-15 colon; 1.56 µM in the experiment with OVCAR-4 ovarian; 6.09 µM in the experiment on SNB-19 CNS. Further, the TGI in the experiment with NCI-H226 lung is 14.1 µM; in the experiment with RXF 393 renal it was 10.4 µM; in the experiment on SK-OV-3 ovarian it was 19.6 µM; with SR leukemia, above 26.2 µM.
